Assay results: ChEMBL document CHEMBL1123891, “Antimalarial activity of 2-(substituted amino)-4,6-bis(trichloromethyl)-1,3,5-triazines and N-(chlorophenyl)-N'-[4-(substituted amino)-6-(trichloromethyl)-1,3,5-triazin-2-yl]guanidines” (1987)
Several values for one entry are separate records, joined by “and”; a condition that tells them apart may be missing. Identical values can stand only once.

Columns and labels:
Mus musculus [1] = test: Mean survival time was determined against Plasmodium berghei treated mice (Mus musculus) after (subcutaneous) administration of 640 mg/kg; format: functional; parameters: unit not given beside the values
Mus musculus [2] = test: (§1) Mean survival time was determined against Plasmodium berghei treated mice (Mus musculus) after (subcutaneously) administration of 40 mg/kg; format: functional; details: route subcutaneous
Mus musculus [3] = test: Mean survival time was determined against Plasmodium berghei treated mice (Mus musculus) after (subcutaneously) administration of 160 mg/kg; format: functional; parameters: unit not given beside the values; details: route subcutaneous
Gallus gallus [4] = test: Mean survival time was determined against Plasmodium gallinaceum treated chicks after (subcutaneously) administration of 100 mg/kg; format: functional; details: route subcutaneous
Mus musculus [5] = species: Mus musculus; test: Dose required for 90% suppression of the parasitaemia in Plasmodium berghei treated mice (Mus musculus) relative to control was determined; format: functional
Mus musculus [6] = test: as §1; format: functional; parameters: unit not given beside the values; details: route subcutaneous
Mus musculus [7] = test: (§2) Mean survival time was determined against Plasmodium berghei treated mice (Mus musculus) after (subcutaneously) administration of 80 mg/kg; format: functional; parameters: unit not given beside the values; details: route subcutaneous
Mus musculus [8] = test: (§3) Mean survival time was determined against Plasmodium berghei treated mice (Mus musculus) after (subcutaneously) administration of 20 mg/kg; format: functional; parameters: unit not given beside the values; details: route subcutaneous
Mus musculus [9] = test: Mean survival time was determined against Plasmodium berghei treated mice (Mus musculus) after (subcutaneous) administration of 160 mg/kg; format: functional; parameters: unit not given beside the values
Gallus gallus [10] = test: Mean survival time was determined against Plasmodium gallinaceum treated chicks after (subcutaneous) administration of 120 mg/kg; format: functional
Mus musculus [11] = test: Mean survival time was determined against Plasmodium berghei treated mice (Mus musculus) after (subcutaneous) administration of 320 mg/kg; format: functional
Mus musculus [12] = test: as §2; format: functional; details: route subcutaneous
Mus musculus [13] = test: as §3; format: functional; details: route subcutaneous
Mus musculus [14] = test: (§4) Mean survival time was determined against Plasmodium berghei treated mice (Mus musculus) after (subcutaneously) administration of 320 mg/kg; format: functional; parameters: unit not given beside the values; details: route subcutaneous
Gallus gallus [15] = test: Mean survival time was determined against Plasmodium gallinaceum treated chicks after (subcutaneously) administration of 120 mg/kg; format: functional; details: route subcutaneous
Gallus gallus [16] = test: Mean survival time was determined against Plasmodium gallinaceum treated chicks after (subcutaneously) administration of 60 mg/kg; format: functional; details: route subcutaneous
Gallus gallus [17] = test: Mean survival time was determined against Plasmodium gallinaceum treated chicks after (subcutaneously) administration of 240 mg/kg; format: functional; details: route subcutaneous
Gallus gallus [18] = test: Mean survival time was determined against Plasmodium gallinaceum treated chicks after (subcutaneous) administration of 240 mg/kg; format: functional
Mus musculus [19] = test: as §4; format: functional; details: route subcutaneous
Mus musculus [20] = test: Mean survival time was determined against Plasmodium berghei treated mice (Mus musculus) after (subcutaneously) administration of 640 mg/kg; format: functional; details: route subcutaneous
Mus musculus [21] = test: Mean survival time was determined against Plasmodium berghei treated mice (Mus musculus) after (subcutaneous) administration of 20 mg/kg

Compound	Delta MST (Mus musculus [2]; 40 mg/kg)	Delta MST (Mus musculus [3]; 160 mg/kg)	SD90 (Mus musculus [5])	Delta MST (Mus musculus [1])	Delta MST (Mus musculus [6])	Delta MST (Mus musculus [7])	Delta MST (Mus musculus [8])	Delta MST (Mus musculus [9]; 160 mg/kg)	Delta MST (Mus musculus [11])	Delta MST (Mus musculus [12])	Delta MST (Mus musculus [13])	Delta MST (Mus musculus [14])	Delta MST (Mus musculus [3])	Delta MST (Gallus gallus [17])	also measured
CN(C)CCCNc1nc(/N=C(\N)Nc2ccc(Cl)c(Cl)c2)nc(C(Cl)(Cl)Cl)n1	1.3 and 1.6	12.3 and 12.6	100 mg/kg												Delta MST (Mus musculus [1]; 640 mg/kg): 15.5 and 14.9; Delta MST (Gallus gallus [4]): 0.2
N=C(Nc1ccc(Cl)cc1)Nc1nc(NCCCN2CCCCC2)nc(C(Cl)(Cl)Cl)n1			208 mg/kg	7.9 and 8.1	1.7 and 1.5	2.7	0.3	3.1 and 3.9	5.5						Delta MST (Gallus gallus [10]): 9.1
ClC(Cl)(Cl)c1nc(NCCCCCN2CCCC2)nc(C(Cl)(Cl)Cl)n1	0.4 and 0.5		34 mg/kg							0.4	0	8.6	2.3		Delta MST (Gallus gallus [15]): 4.6; Delta MST (Mus musculus [9]): 3; Delta MST (Gallus gallus [16]): 1.2
N=C(Nc1ccc(Cl)cc1)Nc1nc(NCCCCCN2CCCC2)nc(C(Cl)(Cl)Cl)n1			145 mg/kg	7.2 and 7	1 and 1.2	2.2	0.6	3.8 and 4.2	4						Delta MST (Gallus gallus [10]): 0.7
CCN1CCCC(Nc2nc(/N=C(\N)Nc3ccc(Cl)cc3)nc(C(Cl)(Cl)Cl)n2)C1 (configuration not stated)	0.7 and 1.1	4.7 and 2.3	97 mg/kg							4.1	0.3	5.3			Delta MST (Mus musculus [1]; 640 mg/kg): 10.3 and 9.9
CCN1CCCC(Nc2nc(C(Cl)(Cl)Cl)nc(C(Cl)(Cl)Cl)n2)C1 (configuration not stated)			91 mg/kg										2.8	1.6	Delta MST (Mus musculus [2]): 0.2
N=C(Nc1ccc(Cl)cc1)Nc1nc(NCCCN2CCCCCC2)nc(C(Cl)(Cl)Cl)n1			240 mg/kg	7.5 and 4.7	1.1 and 0.7	1.7	0.7	2.7 and 1.5	4.5						Delta MST (Gallus gallus [18]): 7.2; Delta MST (Gallus gallus [4]): 18.7
N=C(Nc1ccc(Cl)cc1)Nc1nc(NCCCCN2CCCC2)nc(C(Cl)(Cl)Cl)n1			108 mg/kg	5.8 and 5.3	0.4 and 1	2.2	0.2	3.8 and 4.8	4.8						
ClC(Cl)(Cl)c1nc(NCCCCN2CCCC2)nc(C(Cl)(Cl)Cl)n1	0.2 and 0.3		80 mg/kg							0.4	0.2	4.2	2.8		Delta MST (Mus musculus [9]): 2.1; Delta MST (Gallus gallus [16]): 0.1
ClC(Cl)(Cl)c1nc(NCCCN2CCCC2)nc(C(Cl)(Cl)Cl)n1			86 mg/kg	3.8						0.2	0	1.6	1	0.3	Delta MST (Mus musculus [2]): 0
N=C(Nc1ccc(Cl)cc1)Nc1nc(NCCCN2CCCC2)nc(C(Cl)(Cl)Cl)n1		3.7 and 2.3	235 mg/kg							1.9	0.5			14.4	Delta MST (Mus musculus [2]): 0.5; Delta MST (Mus musculus [19]): 7.5; Delta MST (Gallus gallus [15]): 11.7; Delta MST (Mus musculus [20]): 10.1 and 9.9
CN(C)CCCNc1nc(/N=C(\N)Nc2ccc(Cl)cc2)nc(C(Cl)(Cl)Cl)n1					4.2 and 4.6			5.4 and 6.5							
CN(C)CCCNc1nc(C(Cl)(Cl)Cl)nc(C(Cl)(Cl)Cl)n1	2 and 2.1	4 and 4.7	125 mg/kg							2.2		6.8		0.3	Delta MST (Mus musculus [21]): 1.2; Delta MST (Mus musculus [1]; 640 mg/kg): 16.3 and 17.7
